The term IC50 denotes the point on the concentration scale where inhibition reaches its midpoint. As a reminder, the ED50 is the dose that gives a 50% effect, or the effect in half of the subjects. What is called inhibition is the relative decrease from the control value, in per cent. Usually inhibition in vivo stands for the percentage by which the read-out fell short of the control.

The values that follow come from ChEMBL document CHEMBL3804814, “Quinazolines and quinazolinones as ubiquitous structural fragments in medicinal chemistry: An update on the development of synthetic methods and pharmacological diversification” (Bioorg Med Chem, 2016).

One series deals with HT-29. Nature of the series: Anticancer activity against human HT-29 cells measured after 72 hrs by MTT assay. In kind it is functional, cell-based. Conditions: HT-29, 72 h. (In general: Tetrazolium dyes change colour on reduction, which living cells bring about.)
Series [1] in a line: Cytotoxicity against human lymphocytes measured after 72 hrs by MTT assay. Conditions: Lymphocyte. In kind it is cell-based.
A short description of series [2]: Anticancer activity against human HCT116 cells measured after 72 hrs by MTT assay. It counts as functional, cell-based. As to conditions: HCT-116, 72 h.
The species entered for the next series is Mus musculus. Nature of the series: Anticonvulsant activity in mouse assessed as reduction in MES-induced seizures by maximal electroshock seizure test. In kind it is functional. (In general: In the maximal electroshock model the usual endpoint is tonic extension of the hind limbs.)
Series [3] can be described thus: Protective index, ratio of neurotoxicity in mouse to anticonvulasnt activity for MES-induced seizure mouse model. It counts as toxicity, organism-based. Conditions: in vivo, read-out: PI.
Series [4] has as its target Epidermal growth factor receptor (Homo sapiens) (UniProt P00533). The experiment in a line: Inhibition of EGFR-TK receptor (unknown origin). As to conditions: concentration not given here.
For series [5], the system named is HepG2. Nature of the series: Cytotoxicity against human HepG2 cells measured after 48 hrs by SRB assay. It counts as functional, cell-based. In general terms: Sulforhodamine B stains cellular protein and so reports cell mass.
The nature of series [6]: Anticancer activity against human HCT116 cells measured after 48 hrs by SRB assay. It counts as functional, cell-based. Conditions: hct-116.
The target in series [7] is Epidermal growth factor receptor (Homo sapiens) (UniProt P00533). The experiment in a line: Inhibition of EGFR-tyrosine kinase (unknown origin) at 10 uM measured after 2 hrs by kinase-glo plus luminescence kinase assay.
Series [8] deals with HepG2. The experiment in a line: Potency index, ratio of doxorubicin IC50 to compound IC50 for anticancer activity against human HepG2 cells after 48 hrs by SRB assay. It counts as functional.
Series [9] can be described thus: Anticancer activity against human NCI lung cancer cell by MTT assay. It counts as functional, cell-based. As to conditions: Cancer cell lines.
Series [10] relates to Plasmodium berghei. Nature of the series: Antimalarial activity against chloroquine-sensitive Plasmodium berghei ANKA infected Swiss albino mouse assessed as suppression of parasitemia at 16.59 mg/kg administered for 4 consecutive days measured on 5th day by Giemsa staining based microscopic method. In kind it is functional.
For series [11], the system named is Plasmodium berghei. Nature of the series: Antimalarial activity against chloroquine-sensitive Plasmodium berghei ANKA infected Swiss albino mouse assessed as mean survival time at 16.59 mg/kg administered for 4 consecutive days. In kind it is functional.
A further series has as its target Thymidine phosphorylase (Escherichia coli K-12, UniProt P07650). Nature of the series: Inhibition of recombinant Escherichia coli thymidine phosphorylase using thymidine as substrate measured after 10 mins at 30 degC by spectrophotometric method.
Series [12] has as its target T1, Cathepsin H (Capra hircus) (UniProt A0A060INS8).
T1 sequence (whole entry): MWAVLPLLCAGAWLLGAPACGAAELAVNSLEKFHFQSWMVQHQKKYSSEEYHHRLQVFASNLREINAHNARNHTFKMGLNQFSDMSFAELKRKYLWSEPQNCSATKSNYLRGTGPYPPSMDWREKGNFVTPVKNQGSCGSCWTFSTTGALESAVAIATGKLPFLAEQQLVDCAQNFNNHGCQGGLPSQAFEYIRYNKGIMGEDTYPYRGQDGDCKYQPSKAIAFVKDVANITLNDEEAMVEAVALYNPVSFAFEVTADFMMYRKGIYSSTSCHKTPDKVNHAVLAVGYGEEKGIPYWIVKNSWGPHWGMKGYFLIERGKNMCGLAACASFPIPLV
Nature of the series: Inhibition of goat cathepsin H at 10 uM in presence of Leu-beta-NA after 30 mins by colorimetric method.

For series [13], the target named is T1, Cathepsin H (Capra hircus). Nature of the series: Inhibition of goat cathepsin H at 750 uM in presence of Leu-beta-NA after 30 mins by colorimetric method.
Series [14] has as its target Cathepsin B (Capra hircus) (UniProt H9B8T9). Conditions: 25 uM.
Description: Inhibition of goat cathepsin B at 25 uM in presence of BANA after 30 mins by colorimetric method
For series [15] the target is unchanged. As to conditions: 100 nM.
Description: Inhibition of goat cathepsin B at 100 nM in presence of BANA after 30 mins by colorimetric method
Series [16] relates to Plasmodium berghei. The experiment in a line: Antimalarial activity against chloroquine-sensitive Plasmodium berghei ANKA infected Swiss albino as mean survival time at 18.73 mg/kg administered for 4 consecutive days. In kind it is functional.
Series [17] relates to Plasmodium berghei. The experiment in a line: Antimalarial activity against chloroquine-sensitive Plasmodium berghei ANKA infected Swiss albino mouse assessed as suppression of parasitemia at 18.73 mg/kg administered for 4 consecutive days measured on 5th day by Giemsa staining based microscopic method. It counts as functional.
In series [18] the test system is Plasmodium berghei. The experiment in a line: Antimalarial activity against chloroquine-sensitive Plasmodium berghei ANKA infected Swiss albino mouse assessed as parasitemia at 18.73 mg/kg administered for 4 consecutive days measured on 5th day by Giemsa staining based microscopic method. It counts as functional.
The species entered for a further series is Cavia porcellus. The experiment in a line: Antihistaminic activity in guinea pigs assessed as supression of histamine induced bronchospasm.

Thymidine phosphorylase, sequence (P07650 whole entry): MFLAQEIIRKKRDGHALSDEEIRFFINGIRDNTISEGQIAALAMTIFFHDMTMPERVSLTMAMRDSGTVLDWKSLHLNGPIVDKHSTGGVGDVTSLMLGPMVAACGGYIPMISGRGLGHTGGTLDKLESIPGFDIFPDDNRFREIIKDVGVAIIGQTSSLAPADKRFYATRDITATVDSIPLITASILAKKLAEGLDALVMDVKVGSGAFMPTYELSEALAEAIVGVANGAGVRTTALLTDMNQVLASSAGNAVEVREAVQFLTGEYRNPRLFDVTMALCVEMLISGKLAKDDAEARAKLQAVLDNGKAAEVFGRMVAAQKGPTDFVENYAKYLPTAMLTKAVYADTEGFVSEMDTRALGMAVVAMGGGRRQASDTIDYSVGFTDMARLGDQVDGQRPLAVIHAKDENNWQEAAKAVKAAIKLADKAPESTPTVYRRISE
Epidermal growth factor receptor (Homo sapiens), sequence (P00533 whole entry): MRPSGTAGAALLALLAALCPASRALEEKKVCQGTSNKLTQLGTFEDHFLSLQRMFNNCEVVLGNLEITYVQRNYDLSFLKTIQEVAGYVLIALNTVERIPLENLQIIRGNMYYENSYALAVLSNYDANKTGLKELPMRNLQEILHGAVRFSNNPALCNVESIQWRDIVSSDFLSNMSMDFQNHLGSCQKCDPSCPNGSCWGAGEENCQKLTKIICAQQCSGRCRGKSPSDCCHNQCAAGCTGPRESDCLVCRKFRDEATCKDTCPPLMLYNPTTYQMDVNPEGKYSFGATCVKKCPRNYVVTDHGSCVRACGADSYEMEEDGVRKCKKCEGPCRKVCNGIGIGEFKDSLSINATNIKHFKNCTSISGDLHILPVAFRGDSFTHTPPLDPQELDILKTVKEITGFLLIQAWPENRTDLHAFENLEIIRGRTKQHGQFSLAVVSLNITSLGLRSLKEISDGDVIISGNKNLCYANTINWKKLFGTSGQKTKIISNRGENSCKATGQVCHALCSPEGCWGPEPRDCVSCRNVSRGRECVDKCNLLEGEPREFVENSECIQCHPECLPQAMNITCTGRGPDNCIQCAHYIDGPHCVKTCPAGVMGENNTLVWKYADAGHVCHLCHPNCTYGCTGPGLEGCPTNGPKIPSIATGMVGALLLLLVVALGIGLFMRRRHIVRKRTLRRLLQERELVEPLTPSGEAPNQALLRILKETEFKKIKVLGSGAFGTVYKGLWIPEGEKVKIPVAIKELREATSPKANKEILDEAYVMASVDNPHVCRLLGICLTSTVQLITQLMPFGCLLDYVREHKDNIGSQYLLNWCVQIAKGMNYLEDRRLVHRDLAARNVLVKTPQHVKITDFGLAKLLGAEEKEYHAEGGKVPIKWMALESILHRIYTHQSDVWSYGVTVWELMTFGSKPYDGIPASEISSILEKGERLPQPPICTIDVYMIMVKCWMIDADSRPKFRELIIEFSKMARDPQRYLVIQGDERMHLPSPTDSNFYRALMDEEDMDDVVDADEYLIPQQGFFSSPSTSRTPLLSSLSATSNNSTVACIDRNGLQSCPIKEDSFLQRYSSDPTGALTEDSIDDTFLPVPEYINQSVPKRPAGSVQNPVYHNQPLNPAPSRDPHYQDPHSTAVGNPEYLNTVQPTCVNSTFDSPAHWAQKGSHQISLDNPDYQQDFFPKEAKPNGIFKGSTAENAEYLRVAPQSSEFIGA

In the case of `O=c1c2cc(N3CCN(c4ccccc4F)CC3)ccc2ncn1Cc1ccccc1`, the IC50 stood at 50.9 µM in the series on HT-29, 197 µM in series [1] and 46 µM in [2].

Take `O=c1c2ccccc2nc(-n2cncn2)n1-c1cccc(Br)c1`: the ED50 in the series listed under Mus musculus was 94.6 mg/kg. For the same compound, in series [3], the selectivity ratio was more than 26.

In turn, `O=C(/C=C/c1ccccc1)c1ccc(-n2c(-c3ccco3)nc3ccccc3c2=O)cc1` had an inhibition in [4] of 84%.

With `COc1cccc2c1C(=O)c1c(O)c3c(c(O)c1C2=O)C[C@@](O)(C(=O)CO)C[C@@H]3O[C@H]1C[C@H](N)[C@H](O)[C@H](C)O1` [DOXORUBICIN], the IC50 with HepG2 [5] worked out at 5.7 µM; in [6], 4.8 µM.

As for `N#CC1=C(N)OC(c2ccc(-n3c(-c4ccco4)nc4ccccc4c3=O)cc2)=CC1c1ccc(Cl)cc1` (configuration not stated), the inhibition in series [7] worked out at 95.6%. For the same compound, in the series with HepG2 [8], the “Ratio IC50” value amounted to 24.

`CN(Cc1cnc2nc(N)nc(N)c2n1)c1ccc(C(=O)N[C@@H](CCC(=O)O)C(=O)O)cc1` [METHOTREXATE] came in with an IC50 in series [9] of 2.4 µM.

In the case of `O=c1c2ccccc2nc(/C=C/c2ccc(O)cc2)n1-c1ccccc1`, the inhibition in vivo at 16.59 mg/kg in the series on Plasmodium berghei [10] worked out at 67.6%. The MST with Plasmodium berghei [11] turned out to be 8.3 days.

Regarding `Cc1ccc(-c2cc(-c3ccc(-n4c(-c5ccco5)nc5ccccc5c4=O)cc3)[nH]c(=N)c2C#N)cc1`, the figures for the IC50 (in the series with HepG2 [5]; in series [6]) were 6.7 µM and 1.2 µM, respectively.

In turn, `Cc1cc(C)nc(NS(=O)(=O)c2ccc(-n3c(C)nc4ccc(F)cc4c3=O)cc2)n1` returned a 50% inhibitory concentration (IC50) in series [9] of 2.51 µM.

As for `COc1ccc(-c2cc(-c3ccc(-n4c(-c5ccco5)nc5ccccc5c4=O)cc3)[nH]c(=N)c2C#N)cc1`, the IC50 was 6.6 µM in the series with HepG2 [5] and 0.2 µM in series [6]. In addition, the “Ratio IC50” value in the series on HepG2 [8] is given as 4.

`O=c1[nH]c(-c2cc(O)ccc2O)nc2ccccc12`: on Thymidine phosphorylase, the half-inhibitory concentration (IC50) was 59.5 µM.

On to `O=c1[nH]c(-c2ccc(O)c(O)c2)nc2ccccc12`, for which the IC50 on Thymidine phosphorylase amounted to 42.9 µM.

Regarding `O=C1NC(c2ccc(F)cc2)Nc2ccccc21` (configuration not stated), the figures for the inhibition in series [12] and in series [13] were 100% and 50%, respectively.

On to `Cc1ccc(C2NC(=O)c3ccccc3N2)cc1` (configuration not stated), for which the figures for the inhibition in [14] and in [15] were 100% and 50%, respectively.

The compound `COc1cc(/C=C/c2nc3ccccc3c(=O)n2-c2ccccc2C)ccc1O` gave an MST with Plasmodium berghei [16] of 9.2 days. Also, in the series with Plasmodium berghei [17], the inhibition in vivo at 18.73 mg/kg was 72.9%. Moreover, in the series with Plasmodium berghei [18], the Activity is recorded as 17.71%.

Take `O=c1c2ccccc2nc(-n2cncn2)n1-c1ccc(Cl)cc1`: the ED50 in the series listed under Mus musculus is 88 mg/kg. Moreover, in series [3], the selectivity ratio was more than 25.5.

`CN(C)CCC(c1ccc(Cl)cc1)c1ccccn1.O=C(O)/C=C\C(=O)O` (configuration not stated) [CHLORPHENIRAMINE MALEATE]: in the series filed under Cavia porcellus, the “inhibition (INH)” value is recorded as 70.09%.

Take `Cc1nnc2n(-c3cccc(Cl)c3)c(=O)c3ccccc3n12`: the “inhibition (INH)” value in the series filed under Cavia porcellus came to 69.65%.
